Molecular target: T1, mouse androgen receptor (Mus musculus, UniProt P19091)
T1 sequence (P19091 1-899): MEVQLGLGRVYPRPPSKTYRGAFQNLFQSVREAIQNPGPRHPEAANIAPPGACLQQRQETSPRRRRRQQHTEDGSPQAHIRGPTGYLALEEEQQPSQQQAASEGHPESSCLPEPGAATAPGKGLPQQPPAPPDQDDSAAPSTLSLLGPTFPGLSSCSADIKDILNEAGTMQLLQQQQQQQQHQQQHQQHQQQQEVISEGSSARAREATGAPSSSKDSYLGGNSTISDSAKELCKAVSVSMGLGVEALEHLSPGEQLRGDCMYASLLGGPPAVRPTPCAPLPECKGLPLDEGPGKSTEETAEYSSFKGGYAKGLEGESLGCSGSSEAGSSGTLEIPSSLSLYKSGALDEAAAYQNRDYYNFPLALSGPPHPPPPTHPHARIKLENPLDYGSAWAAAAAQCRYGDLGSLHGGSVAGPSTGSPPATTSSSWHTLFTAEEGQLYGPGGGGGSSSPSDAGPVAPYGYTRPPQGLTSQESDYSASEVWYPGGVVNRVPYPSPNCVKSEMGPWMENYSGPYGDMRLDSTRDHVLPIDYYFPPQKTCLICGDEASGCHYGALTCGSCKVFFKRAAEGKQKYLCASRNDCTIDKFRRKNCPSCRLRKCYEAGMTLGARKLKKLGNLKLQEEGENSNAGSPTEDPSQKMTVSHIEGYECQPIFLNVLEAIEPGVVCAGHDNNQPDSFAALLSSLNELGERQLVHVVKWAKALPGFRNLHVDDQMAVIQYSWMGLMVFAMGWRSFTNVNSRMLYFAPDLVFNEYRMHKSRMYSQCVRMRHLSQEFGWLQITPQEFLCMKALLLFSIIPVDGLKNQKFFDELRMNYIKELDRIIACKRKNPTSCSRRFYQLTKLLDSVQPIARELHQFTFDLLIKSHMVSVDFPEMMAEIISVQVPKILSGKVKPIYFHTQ
Settings: compete for binding sites only at high concentrations
Description: Bound and free steroids are separated by dextran-coated charcoal (0.5% Norit A and 0.05% dextran). Specific binding is determined by subtracting non-specific from total binding.

CC(C)(O)C(=O)Nc1ccc([N+](=O)[O-])c(C(F)(F)F)c1 [hyroxyl-flutamide]
affinity for the androgen receptor (in words): lower affinity
